# Reference: US6521631B2, “Heterocyclic sulfonamides” (Hoffmann-La Roche Inc., priority 1999, dated 2003)
# Key:
# [1] = molecular target: T1, human ETA receptors (Homo sapiens, UniProt P25101); assay: Inhibition of 125I-endothelin binding to recombinant human ETA receptors expressed in Baculovirus-infected insect cells; conditions: recombinant human ETA receptor membranes, 20 pM 125I-endothelin; read-out: IC50, concentration required to inhibit 50% of the specific binding of 125I-endothelin
# T1 construct: made in house; host or cells: Baculovirus-infected insect cells (membrane preparation)
# T1 sequence (P25101 21-427): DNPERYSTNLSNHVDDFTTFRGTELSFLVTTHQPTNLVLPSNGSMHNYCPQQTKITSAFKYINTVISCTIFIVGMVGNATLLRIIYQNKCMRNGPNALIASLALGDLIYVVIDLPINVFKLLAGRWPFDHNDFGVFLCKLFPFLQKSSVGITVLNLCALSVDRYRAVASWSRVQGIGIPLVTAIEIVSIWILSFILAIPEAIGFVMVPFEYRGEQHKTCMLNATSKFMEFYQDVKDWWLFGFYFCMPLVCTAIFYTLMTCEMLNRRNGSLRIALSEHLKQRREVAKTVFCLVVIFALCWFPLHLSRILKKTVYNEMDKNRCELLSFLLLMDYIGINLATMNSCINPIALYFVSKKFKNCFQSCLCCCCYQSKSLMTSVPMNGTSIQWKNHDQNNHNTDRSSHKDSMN
# Description: I. Inhibition of Endothelin Binding to Recombinant Human ETA Receptors Expressed in Baculovirus-infected Insect Cells
# A cDNA coding for human ETA receptors of human placenta was cloned (M. Adachi, Y.-Y. Yang, Y. Furuichi and C. Miyamoto, BBRC 180, 1265-1272) and expressed in the Baculovirus-insect cell system. Baculovirus-infected insect cells from a 23 l fermenter are centrifuged off (3000×g, 15 minutes, 4° C.) 60 hours after the infection, re-suspended in Tris buffer (5 mM, pH 7.4, 1 mM MgCl2) and again centrifuged. After a further re-suspension and centrifugation the cells are suspended in 800 ml of the same buffer and freeze-dried at −120° C. The cells disintegrate when the suspension in this hypotonic buffer mixture is thawed. After a repeated […]/thawing cycle the suspension is homogenised and centrifuged (25000×g, 15 minutes, 4° C.). After suspension in Tris buffer (75 mM, pH 7.4, 25 mM MgCl2, 250 mM sucrose) 1 ml aliquots (protein content about 3.5 mg/ml) are stored at −85° C.
# For the binding assay, the freeze-dried membrane preparations are thawed and, after centrifugation at 20° C. and 25000 g for 10 minutes, re-suspended in assay buffer (50 mM Tris buffer, pH 7.4, containing 25 mM MnCl2, 1 mM EDTA and 0.5% bovine serum albumin). 100 μl of this membrane suspension containing 70 μg of protein are incubated with 50 μl of ^125I-endothelin (specific activity 2200 Ci/mMol) in assay buffer (25000 cpm, final concentration 20 pM) and 100 μl of assay buffer containing varying concentrations of test compound. The incubation is carried out at 20° C. for 2 hours or at 4° C. for 24 hours. The separation of free and membrane-bound radio-ligands is carried out by filtration over a glass fibre filter. The inhibitory activity of compounds of formula (I) determined in this test procedure is given in Table 1 as the IC50, i.e. as the concentration [nM] which is required to inhibit 50% of the specific binding of ^125I-endothelin.
# [2] = system: isolated rat aorta rings; conditions: for pA2: shift to the right of the endothelin-1 dosage-activity curve, endothelium-denuded thorax aorta rings
# Description: Inhibition of Endothelin-induced Contractions in Isolated Rat Aorta Rings
# Rings with a length of 5 mm were cut out from the thorax aorta of adult Wistar-Kyoto rats. The endothelium was removed by lightly rubbing the internal surface. Each ring was immersed at 37° C. in 10 ml of Krebs-Henseleit solution in an isolated bath while gassing with 95% O2 and 5% CO2. The isometric stretching of the rings was measured. The rings were stretched to a pre-tension of 3 g. After incubation for 10 minutes with the test compound or vehicle cumulative dosages of endothelin-1 were added. […] This shift to the right (or “dose ratio”, DR) corresponds to the quotient from the EC50 values of endothelin-1 in the presence and in the absence of antagonist, with the EC50 value denoting the endothelin concentration required for a half-maximum contraction.
# The corresponding pA2 value, which is a measure of the activity of the test compound, was calculated using a computer programme according to the following equation from the “dose ratio” DR for each individual dosage-activity curve.
# pA2=log(DR−1)−log(antagonist-concentration)
SMILES,IC50 [1],pA2 [2],melting point,"EC50 ([2]; read-out: EC50 of endothelin in the absence of test compounds, endothelin concentration required for a half-maximum contraction, no antagonist)"
"COc1ccccc1Oc1c(NS(=O)(=O)c2ccc(C)cn2)nc(-c2ccncc2)nc1OC [Example 1, 5-methyl-pyridine-2-sulfonic acid[6-methoxy-5-(2-methoxy-phenoxy)-2-pyridin-4-yl-pyrimidin-4-yl]-amide]",≤ 50 nM,≧8.0,,
"COc1ccccc1Oc1c(NS(=O)(=O)c2ccc(C(C)C)cn2)nc(-c2ccncc2)nc1OC [Example 2, 5-isopropyl-pyridine-2-sulfonic acid[6-methoxy-5-(2-methoxy-phenoxy)-2-pyridin-4-yl-pyrimidin-4-yl]-amide]",≤ 50 nM,≧8.0,195 to 197 °C,
"C=C(C)c1ccc(S(=O)(=O)Nc2nc(-c3ccncc3)nc(OC)c2Oc2ccccc2OC)nc1 [Example 3, 5-isopropenyl-pyridine-2-sulfonic acid[6-methoxy-5-(2-methoxy-phenoxy)-2-pyridin-4-yl-pyrimidin-4-yl]-amide]",≤ 50 nM,,,
"CC[C@H](C)[C@H](NC(=O)[C@H](CC(=O)O)NC(=O)[C@H](CC(C)C)NC(=O)[C@H](Cc1c[nH]cn1)NC(=O)[C@@H]1CSSC[C@H](N)C(=O)N[C@@H](CO)C(=O)N[C@H]2CSSC[C@H](NC(=O)[C@H](CCC(=O)O)NC(=O)[C@H](CCCCN)NC(=O)[C@H](CC(=O)O)NC(=O)[C@H](CCSC)NC(=O)[C@H](CC(C)C)NC(=O)[C@H](CO)NC(=O)[C@H](CO)NC2=O)C(=O)N[C@@H](C(C)C)C(=O)N[C@@H](Cc2ccc(O)cc2)C(=O)N[C@@H](Cc2ccccc2)C(=O)N1)C(=O)N[C@H](C(=O)N[C@@H](Cc1c[nH]c2ccccc12)C(=O)O)[C@@H](C)CC [endothelin, reference compound]",,,,0.3 nM
